One data set deals with T1, human PPAR α (Homo sapiens, UniProt Q07869).
T1 construct: expressed in transfected cells; host or cells: HEK293
T1 sequence (Q07869 167-468 limits assumed): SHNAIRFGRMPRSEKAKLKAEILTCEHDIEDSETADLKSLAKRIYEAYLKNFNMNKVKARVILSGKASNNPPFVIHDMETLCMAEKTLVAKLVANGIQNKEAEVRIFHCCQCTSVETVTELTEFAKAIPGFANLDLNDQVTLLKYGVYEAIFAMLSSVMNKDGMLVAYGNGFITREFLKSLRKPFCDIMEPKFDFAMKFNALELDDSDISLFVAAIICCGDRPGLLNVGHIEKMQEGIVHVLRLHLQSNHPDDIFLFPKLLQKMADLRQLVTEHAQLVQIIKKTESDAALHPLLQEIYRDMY
Kind of data set: In vitro PPAR alpha transactivation assay (GAL4-DBD/PPAR-LBD, luciferase reporter, HEK293). It counts as cell-based. As to conditions: for In vitro activation PPAR α % max: fold activation relative to maximum activation obtained with Wy14643 (approx. 20 fold corresponded to 100%); for EC50: transfected HEK293 cells, 24 h compound, five concentrations 0.01 to 30 μM, at least three experiments, means, read-out: In vitro activation PPAR α EC50. The source says: (§1) In Vitro PPAR Alpha and PPAR Gamma Activation Activity.
(§2) The PPAR gene transcription activation assays were based on transient transfection into human HEK293 cells of two plasmids encoding a chimeric test protein and a reporter protein respectively. The chimeric test protein was a fusion of the DNA binding domain (DBD) from the yeast GAL4 transcription factor to the ligand binding domain (LBD) of the human PPAR proteins. The PPAR LBD harbored in addition to the ligand binding pocket also the native activation domain (activating function 2=AF2) allowing the fusion protein to function as a PPAR ligand dependent transcription factor. The GAL4 DBD will force the fusion protein to bind only to Gal4 enhancers (of which none existed in HEK293 cells). The reporter plasmid contained a Gal4 enhancer driving the expression of the firefly luciferase protein. After transfection, HEK293 cells expressed the GAL4-DBD-PPAR-LBD fusion protein. The fusion protein will in turn bind to the Gal4 enhancer controlling the luciferase expression, and do nothing in the absence of ligand. Upon addition to the cells of a PPAR ligand, luciferase protein will be produced in amounts corresponding to the activation of the PPAR protein. The amount of luciferase protein is measured by light emission after addition of the appropriate substrate.
(§3) Cell culture and transfection: HEK293 cells were grown in DMEM+10% FCS. Cells were seeded in 96-well plates the day before transfection to give a confluency of 50-80% at transfection. A total of […] DNA containing 0.64 μg pM1α/γLBD, 0.1 μg pCMVβGal, 0.08 μg pGL2Gal4DBD and 0.02 μg p[…] was transfected per well using FuGene transfection reagent according to the manufacturers instructions (Roche). Cells were allowed to express protein for 48 h followed by addition of compound.
Plasmids: Human PPAR α and γ was obtained by PCR amplification using cDNA synthesized by reverse transcription of mRNA from liver and adipose tissue respectively. Amplified cDNAs were cloned into pCR2.1 and sequenced. The ligand binding domain (LBD) of each PPAR isoform was generated by PCR (PPARα: aa 167—C-terminus; PPARγ: aa 165—C-terminus) and fused to the DNA binding domain (DBD) of the yeast transcription factor GAL4 by subcloning fragments in frame into the vector pM1 generating the plasmids pM1αLBD and pM1γLBD. Ensuing fusions were verified by sequencing. The reporter was constructed by inserting an oligonucleotide encoding five repeats of the GAL4 recognition sequence (5×[…](AG)) into the vector pGL2 promotor (Promega) generating the plasmid pGL2(GAL4)5. pCMVβGal was purchased from Clontech and p[…] was purchased from Promega.
(§4) Luciferase assay: Medium including test compound was aspirated and 100 μl PBS incl. 1 mM Mg++ and Ca++ was added to each well. The luciferase assay was performed using the Lu-cLite kit according to the manufacturers instructions (Packard Instruments). Light emission was quantified by counting SPC mode on a Packard Instruments top-counter. To measure β-galactosidase activity 25 μl supernatant from each transfection lysate was transferred to a new microplate. β-galactosidase assays were performed in the microwell plates using a kit from Promega and read in a microplate reader. The β-galactosidase data were used to normalize (transfection efficiency, cell growth etc.) the luciferase data.
(§5) Compounds: All compounds were dissolved in DMSO and diluted 1:1000 upon addition to the cells. Compounds were tested in quadruple in five concentrations ranging form 0.01 to 30 μM. Cells were treated with compound for 24 h followed by luciferase assay. Each compound was tested in three separate experiments. EC50 values were calculated via non-linear regression using GraphPad PRISM 3.02 (GraphPad Software, San Diego, Calif.). The results were expressed as means.
A general note: Reporter assays use an easily measured gene product as a stand-in for the process of interest.

The target of another data set is T2, human PPAR γ (Homo sapiens, UniProt P37231).
T2 construct: PPARγ: aa 165—C-terminus); expressed in transfected cells; host or cells: HEK293
T2 sequence (P37231 238-503 limits assumed): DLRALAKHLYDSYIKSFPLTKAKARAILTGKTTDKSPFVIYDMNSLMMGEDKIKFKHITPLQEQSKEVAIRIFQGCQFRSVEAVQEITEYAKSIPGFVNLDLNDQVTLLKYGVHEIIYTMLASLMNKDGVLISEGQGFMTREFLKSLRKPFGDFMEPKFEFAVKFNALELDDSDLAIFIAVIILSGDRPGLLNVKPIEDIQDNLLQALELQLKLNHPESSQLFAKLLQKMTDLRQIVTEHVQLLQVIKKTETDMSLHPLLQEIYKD
Kind of data set: In vitro PPAR gamma transactivation assay (GAL4-DBD/PPAR-LBD, luciferase reporter, HEK293). The class given is cell-based. As to conditions: for In vitro activation PPAR γ % max: fold activation relative to maximum activation obtained with rosiglitazone (approx. […] fold corresponded to 100%); for EC50: transfected HEK293 cells, 24 h compound, five concentrations 0.01 to 30 μM, at least three experiments, means, read-out: In vitro activation PPAR γ EC50.
Description: as §1, §2, §3
Plasmids: Human PPAR α and γ was obtained by PCR amplification using cDNA synthesized by reverse transcription of mRNA from liver and adipose tissue respectively. Amplified cDNAs were cloned into pCR2.1 and sequenced. The ligand binding domain (LBD) of each PPAR isoform was generated by PCR (PPARα: aa 167—C-terminus; PPARγ: aa 165—C-terminus) and fused to the DNA binding domain (DBD) of the yeast transcription factor GAL4 by subcloning fragments in frame into the vector pM1 generating the plasmids pM1αLBD and pM1γLBD. Ensuing fusions were verified by sequencing.
as §4, §5

Regarding `CCO[C@@H](Cc1ccc(OC/C=C(\C)c2ccc(-c3cc(Br)cc(Br)c3)cc2)cc1)C(=O)O` [Example 124, (E)-(S)-3-{4-[3-(3′,5′-Dibromo-biphenyl-4-yl)-but-2-enyloxy]-phenyl}-2-ethoxy-propionic acid], on human PPAR α, the “In vitro activation PPAR α % max” value came to 102% and the EC50 (commonly the concentration that produces a half-maximal response) came out at 350 nM. Moreover, at human PPAR γ, the “In vitro activation PPAR γ % max” value stood at 83% and the EC50 was determined as 300 nM.

`CCCCOC(Cc1ccc(OC/C=C(\C)c2ccc(-c3ccccc3)cc2)cc1)C(=O)OCC` (racemic) [Example 135, (E)-(S/R)-Ethyl 3-[4-(3-Biphenyl-4-yl-but-2-enyloxy)-phenyl]-2-butoxy-propionate]: the melting point (as a rule, the temperature of the solid-liquid transition) fell in the range of 62 to 63.5 °C.

For the compound `CCO[C@@H](Cc1ccc(OC/C=C(\C)c2ccc(-c3cc(Cl)ccc3OC)cc2)cc1)C(=O)O` [Example 57, (E)-(S)-3-{4-[3-(5′-Chloro-2′-methoxy-biphenyl-4-yl)-but-2-enyloxy]-phenyl}-2-ethoxy-propionic acid], at human PPAR α, the “In vitro activation PPAR α % max” value is recorded as 178% and the EC50 was 380 nM. In addition, on human PPAR γ, the “In vitro activation PPAR γ % max” value turned out to be 110% and the EC50 is 700 nM.

`C/C(=C\COc1ccc(CC(OC(C)C)C(=O)O)cc1)c1ccc(-c2ccccc2)cc1` (racemic) [Example 134, (E)-(S/R)-3-[4-(3-Biphenyl-4-yl-but-2-enyloxy)-phenyl]-2-isopropoxy-propionic acid]: the melting point fell in the range of 125 to 127.5 °C. At human PPAR α, the “In vitro activation PPAR α % max” value is given as 122% and the EC50 is 2900 nM. Moreover, at human PPAR γ, the “In vitro activation PPAR γ % max” value worked out at 155% and the EC50 was determined as 890 nM.

On to `CCCCCCOC(Cc1ccc(OC/C=C(\C)c2ccc(-c3ccccc3)cc2)cc1)C(=O)O` (racemic) [Example 138, (E)-(S/R)-3-[4-(3-Biphenyl-4-yl-but-2-enyloxy)-phenyl]-2-hexyloxy-propionic acid], for which the melting point lay in the range of 117 to 119 °C.

As to `CCO[C@@H](Cc1ccc(OC/C=C(\C)c2ccc(-c3ccc(Br)cc3)cc2)cc1)C(=O)O` [Example 4, (E)-(S)-3-{4-[3-(4′-Bromo-biphenyl-4-yl)-but-2-enyloxy]-phenyl}-2-ethoxy-propionic acid], on human PPAR α, the “In vitro activation PPAR α % max” value is 212% and the EC50 is 3100 nM. In addition, at human PPAR γ, the “In vitro activation PPAR γ % max” value is given as 156% and the EC50 turned out to be 720 nM.

The compound `C/C(=C\COc1ccc(CC(OCCCc2ccccc2)C(=O)O)cc1)c1ccc(-c2ccccc2)cc1` (racemic) [Example 140, (E)-(S/R)-3-[4-(3-Biphenyl-4-yl-but-2-enyloxy)-phenyl]-2-(3-phenyl-propoxy)-propionic acid] showed a melting point of 115 to 117 °C.

For `CCOC(=O)[C@H](Cc1ccc(OC/C=C/c2cc3ccccc3o2)cc1)OCC` [Example 27], at human PPAR α, the “In vitro activation PPAR α % max” value was 185% and the EC50 was 100 nM. For the same compound, on human PPAR γ, the “In vitro activation PPAR γ % max” value is 99% and the EC50 was 110 nM.

`CCOC(=O)C(Cc1ccc(OC/C=C(\C)c2ccc(-c3ccccc3)cc2)cc1)OC(C)C` (racemic) [Example 133, (E)-(S/R)-Ethyl 3-[4-(3-Biphenyl-4-yl-but-2-enyloxy)-phenyl]-2-isopropoxy-propionate] showed a melting point of 79 to 81 °C.

Consider `CCOC(=O)[C@H](Cc1ccc(OC/C=C(\C)c2ccc(-c3ccc(C(C)C)cc3)cc2)cc1)OCC` [Example 103, (E)-(S)-Ethyl 2-Ethoxy-3-{4-[3-(4′-isopropyl-biphenyl-4-yl)-but-2-enyloxy]-phenyl}-propionate], for which the melting point was in the range of 70 to 73 °C.

As for `CCOC(=O)[C@H](Cc1ccc(OC/C=C(\C)c2ccc3c(c2)Cc2ccccc2-3)cc1)OCC` [Example 9, (E)-(S)-2-Ethoxy-3-{4-[3-(9H-fluoren-2-yl)-but-2-enyloxy]-phenyl}-propionic acid ethyl ester], on human PPAR α, the “In vitro activation PPAR α % max” value is 234% and the EC50 was 38 nM. In addition, on human PPAR γ, the “In vitro activation PPAR γ % max” value came out at 125% and the EC50 is 350 nM.

(Values after patent US6867218B2, “Compounds, their preparation and use” (Novo Nordisk A/S, priority 2000, dated 2005).)
